Measurements from patent US20260027116A1, “Methods of Treating Chronic Graft-Versus-Host Disease Following Allogeneic Hematopoietic Stem Cell Transplantation” (Kadmon Corporation, LLC, priority 2022, published 2026).

Columns and labels:
[1] = tested on: cGVHD; experiment: Example 2: corticosteroid and other immunosuppressant reduction; format: in vivo, human
Protocol: All responses were assessed by the study site investigators.

[2] = target: T1, UGT1A1 (Homo sapiens, UniProt P22309); experiment: enzyme inhibition in vitro; format: in vitro ADME
T1 sequence (P22309 26-533): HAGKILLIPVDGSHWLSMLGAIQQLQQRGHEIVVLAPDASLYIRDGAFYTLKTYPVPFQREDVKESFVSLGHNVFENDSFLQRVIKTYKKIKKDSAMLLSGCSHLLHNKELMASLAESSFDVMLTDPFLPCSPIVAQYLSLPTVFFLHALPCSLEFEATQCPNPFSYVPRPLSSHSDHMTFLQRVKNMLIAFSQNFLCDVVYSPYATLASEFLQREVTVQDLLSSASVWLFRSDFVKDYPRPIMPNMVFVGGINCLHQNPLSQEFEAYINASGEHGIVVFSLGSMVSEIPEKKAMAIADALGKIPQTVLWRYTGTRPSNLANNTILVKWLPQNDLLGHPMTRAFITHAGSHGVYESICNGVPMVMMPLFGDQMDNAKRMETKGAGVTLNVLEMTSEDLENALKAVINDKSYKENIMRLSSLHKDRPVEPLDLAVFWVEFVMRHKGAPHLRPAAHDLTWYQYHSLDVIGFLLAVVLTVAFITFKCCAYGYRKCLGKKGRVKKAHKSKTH

[3] = pharmacokinetics in specific populations (population pharmacokinetics); design: species or system human; details: in vivo

## CC(C)NC(=O)COc1cccc(-c2nc(Nc3ccc4[nH]ncc4c3)c3ccccc3n2)c1 [Belumosudil, 2-{3-[4-(1H-indazol-5-ylamino)-2-quinazolinyl]phenoxy}-N-(propan-2-yl) acetamide]
[1]; 200 mg daily
  Mean change in CS dose from baseline, Nonresponder: −22%
  Mean change in CS dose from baseline, Overall: −43%
  Mean change in CS dose from baseline, Responder: −49%
[1]; 200 mg daily (n = 66)
  CS discontinuation: 13 (20) n (%)
  Median CS reduction from baseline to greatest reduction: 38%
  Proportion with CS reduction: 42 (64) n (%)
[1]; 200 mg twice daily
  Mean change in CS dose from baseline, Nonresponder: −10%
  Mean change in CS dose from baseline, Overall: −48%
  Mean change in CS dose from baseline, Responder: −58%
[1]; 200 mg twice daily (n = 66)
  CS discontinuation: 15 (23) n (%)
  Median CS reduction from baseline to greatest reduction: 50%
  Proportion with CS reduction: 44 (67) n (%)
[1]; Example 2
  subjects who discontinued calcineurin inhibitor (CNI) therapy: 22%
  subjects who discontinued mycophenolate mofetil: 21%
  subjects who discontinued sirolimus: 20%
  subjects who reduced corticosteroid dose: 65%
[1]; Example 2, mITT
  mean corticosteroid dose reduction: 45%
[1]; Example 2, responders
  mean corticosteroid dose reduction: 54%
[1]; Total
  Mean change in CS dose from baseline, Nonresponder: −16%
  Mean change in CS dose from baseline, Overall: −45%
  Mean change in CS dose from baseline, Responder: −54%
[1]; Total (N = 132)
  Median CS reduction from baseline to greatest reduction: 50%
  Proportion with CS reduction: 86 (65) n (%)
[2]
  inhibition of UGT1A1: inhibitor
[3]
  effect of age and body weight on pharmacokinetics (population pharmacokinetic data): no clinically meaningful effect
  pharmacokinetic differences by age, sex, weight, mild to moderate renal impairment: No clinically significant differences
